From patent US7704985B2, “Treatment of irritable bowel syndrome and related bowel diseases” (The Board of Regents of the University of Texas System, priority 2002, dated 2010)

System: acetic acid sensitized rats
Experiment: Behavioral response to graded colorectal distention (CRD) in neonatally acetic acid sensitized rats
Type: in vivo, Sprague Dawley rat
Conditions: oral, 1.5 mg/kg body weight in corn oil daily for two weeks; graded CRD 10 mm-80 mm Hg; behavioral response grading 0-3
Procedure: Neonatal sensitization with acetic acid: Description of the model. It was previously shown that transient noxious stimulation of the colon during postnatal development can cause long-lasting hyperalgesia, despite complete resolution of the initiating event. In a variation of this technique, 0.3% acetic acid was instilled into the rectum of rats at postnatal days 7-10. […] By contrast, when rats are treated with acetic acid as adults, and tested after a similar period of time, no sensitization is observed. Sprague Dawley rat pups were sensitized on neonatal day 10 with acetic acid. In brief, a thin polyethylene tubing (P-90 was introduced gently into the rectum 2 cm from the anus. 0.2 ml of 0.5% glacial acetic acid in normal saline was injected through the tube into the colo rectum. The pups were allowed to grow into adults. When the rats were approximately eight weeks old they were weighed and their behavioral responses to graded (10 mm-80 mm Hg) colo rectal distention (CRD) was determined. Under light brevital (1%) anesthesia a polyethelene tube connected to a balloon (made out of a glove finger) was guided into the colo-rectum ˜8 cms from the rectum and the tube was fastened to the tail. The open end was connected to the barostat device. The rat was put into a rat restrainer allowing limited movement. […]

CCC(=O)OCC(=O)[C@@]1(OC(=O)CC)[C@@H](C)C[C@H]2[C@@H]3CCC4=CC(=O)C=C[C@]4(C)[C@@]3(Cl)[C@@H](O)C[C@@]21C [beclamethasone dipropionate]
pain threshold to graded CRD compared to the vehicle treated group: higher pain threshold
